Reference: patent US20210253651A1, “METHOD FOR PRODUCING ORGANIC COMPOUND-ENCAPSULATING FERRITIN” (Ajinomoto Co., Inc., priority 2018, published 2021)
Structures can show the parent of a compound that is named as a salt. Where two headings read alike, the source gives them in different places.

Assays:
[1] = cited from earlier work
FTH ferritin [2] = target: T1, FTH ferritin (Homo sapiens, UniProt P02794); experiment: one-step process incorporation of DOX into FTH ferritin; type: physicochemical; settings: for incorporation efficiency of the reagent: FTH ferritin 1 mg/mL; for number of molecules of DOX incorporated into one molecule of FTH ferritin: presumed, average
T1 construct: made in house; host or cells: Escherichia coli BL21 (DE3), plasmid pET20-FTH
T1 sequence (P02794 whole entry): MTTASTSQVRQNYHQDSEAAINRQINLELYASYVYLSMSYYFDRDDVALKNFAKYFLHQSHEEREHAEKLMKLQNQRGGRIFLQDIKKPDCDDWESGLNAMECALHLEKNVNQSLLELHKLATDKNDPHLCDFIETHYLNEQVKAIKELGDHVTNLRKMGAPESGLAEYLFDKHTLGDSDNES
Experimental: (§1) In this reaction, an acetate buffer was used for pH 3, 4, 5 and 6, while Tris-HCl buffer was used for pH 7, 8 and 9. After the standing, 0.5 mL of water was added to the resulting solution. After the resulting solution was centrifuged (at 15,000 rpm for one minute), the supernatant was injected into a desalting column PD-10 (Sephadex G-25 filled product, GE Healthcare Inc.) equilibrated with 10 mM Tris-HCl buffer (pH 8) to separate the protein from a reagent that was not encapsulated. Whole amount (3.5 mL) of the resulting solution was concentrated to 0.1 mL by centrifugal ultrafiltration using Vivaspin 20-100K (GE Healthcare Inc.), and then absorbances at 280 nm and 480 nm were measured using spectrophotometer (DU-800, Beckman Coulter Inc.).
as §1, with “After” for “In this reaction, an acetate buffer was used for pH 3, 4, 5 and 6, while Tris-HCl buffer was used for pH 7, 8 and 9. After”, “into the” for “into a”
After the standing, 0.5 mL water was added to the resulting solution. After the resulting solution was centrifuged (at 15,000 rpm for one minute), the supernatant was injected into the desalting column PD-10 (Sephadex G-25 filled product, GE Healthcare Inc.) equilibrated with 10 mM Tris-HCl buffer (pH 8) to separate the protein from a reagent that was not encapsulated. Whole amount (3.5 mL) of the resulting solution was concentrated by centrifugal ultrafiltration using Vivaspin 20-100K (GE Healthcare Inc.). Glycine-HCl buffer (pH 2.3) was added to the resulting solution to achieve a final concentration of 100 mM, then a volume was controlled to 0.2 mL. […] The absorbance at 480 nm was measured using spectrophotometer (DU-800, Beckman Coulter Inc.) for the resulting solution in order to determine the concentration of DOX. The concentration of protein in the solution was determined using the protein assay CBB solution (Nacalai Tesque, Inc.) as well as bovine albumin as a standard.
After the standing, 0.5 mL water was added to the resulting solution. After the resulting solution was centrifuged (at 15,000 rpm for one minute), the supernatant was injected into the desalting column PD-10 (Sephadex G-25 filled product, GE Healthcare Inc.) equilibrated with 10 mM Tris-HCl buffer (pH 8) to separate the protein from a reagent that was not encapsulated. Whole amount (3.5 mL) of the resulting solution was concentrated by centrifugal ultrafiltration using Vivaspin 20-100K (GE Healthcare Inc.). Glycine-HCl buffer (pH 2.3) was added to the resulting solution to achieve a final concentration of 100 mM, then a volume was controlled to 0.5 mL. The absorbance at 480 nm was measured using spectrophotometer (DU-800, Beckman Coulter Inc.) for the resulting solution in order to determine the concentration of DOX. The concentration of protein in the solution was determined using the protein assay CBB solution (Nacalai Tesque, Inc.) as well as bovine albumin as a standard.

FTH ferritin [3] = target: T1, FTH ferritin; experiment: ratio of amounts incorporated, one-step vs disassembly-reassembly process; type: physicochemical
Experimental: As a control, some of small molecule agents listed in Table 1 was incorporated into ferritin also at the disassembly-reassembly process. […] Then, 10 μL of 1M Tris-HCl buffer (pH 9.0) was added for neutralization, and the resulting solution was left to stand for 15 minutes at room temperature. After the standing, 0.5 mL of water was added. After the resulting solution was centrifuged (at 15,000 rpm for one minute), the supernatant was injected into the desalting column PD-10 (Sephadex G-25 filled product, GE Healthcare Inc.) equilibrated with 10 mM Tris-HCl buffer (pH 8) to separate the protein from a reagent that was not encapsulated. […]
The absorbances were measured using spectrophotometer (DU-800, Beckman Coulter Inc.) for these solutions, and the concentration of contained protein was determined using the protein assay CBB solution (Nacalai Tesque, Inc.) as well as bovine albumin as a standard. Absorbances at 280 nm and 480 nm were measured for Rhodamine B and Congo Red. […] Then, after the absorbances were calibrated based on the absorbances that were derived from the proteins and presumed by the amount of contained protein quantified using the protein assay CBB solution, the concentrations of small molecule agents were determined based on the calibration curves obtained by the absorbances of the molecules. […]

[4] = pH 9, 60° C., after 30 minutes, DOX 0.1 mg/mL

## COc1cccc2c1C(=O)c1c(O)c3c(c(O)c1C2=O)C[C@@](O)(C(=O)CO)C[C@@H]3OC1CC(N)C(O)C(C)O1 (stereo partly drawn) [DOX, Doxorubicin hydrochloride]
[1]; second pKa value
  pKa: 8.46
[1]; single or first pKa value
  pKa: 7.34
[1]; third printed pKa value
  pKa: 9.46
FTH ferritin [2]; pH 6 or less, 25° C., 60 minutes, DOX 0.1 mg/mL
  incorporation efficiency of the reagent: ≤ 0.5 ° (wt)
FTH ferritin [2]; pH 9, 25° C., 60 minutes, DOX 0.1 mg/mL
  incorporation efficiency of the reagent: ≥ 1 % (wt)
FTH ferritin [2]; pH 9, 60° C., 60 minutes, DOX 0.1 mg/mL
  incorporation efficiency of the reagent: ≥ 5 % (wt)
FTH ferritin [2]; pH 9, 60° C., 60 minutes, at maximum incorporation
  number of molecules of DOX incorporated into one molecule of FTH ferritin: 165
FTH ferritin [2]; pH 9, 60° C., 60 minutes, concentration ratio of FTH ferritin to DOX varied (10:3 or less)
  incorporation efficiency of the reagent at the maximum: 16 % (wt)
FTH ferritin [2]; [4]
  maximum incorporation efficiency of the reagent: 5 % (wt)
  number of molecules of DOX incorporated into one molecule of FTH ferritin: 50
FTH ferritin [2]; pH 9, 60° C., until 30 minutes
  rate of DOX incorporation: 1.7 mg-DOX/minute per gram of ferritin
FTH ferritin [3]
  ratio of amount incorporated at the one-step process to that at the disassembly-reassembly process: 30 fold
